Test results published in paper PMC7431030 (Nature, 2020).
“Also recorded” adds a separate entry of the source. Square brackets hold non-standard residues; d marks the D form. Peptide text beside a SMILES is read from it. NMeTrp(1-(4-Br-benzyl)) = CN[C@@H](Cc1cn(Cc2ccc(Br)cc2)c2ccccc12)C(=O)O; Butanoyl(2R-oxy,4-CN) = N#CCC[C@@H](O)C(=O)O; NMeL = CN[C@@H](CC(C)C)C(=O)O; NMeA = CN[C@@H](C)C(=O)O

Columns and labels:
SARS-CoV-2 [1] = format: cell-based
SARS-CoV-2 [2] = format: cell-based; conditions: Vero E6 cells
SARS-CoV-2 [3] = format: cell-based; remark: listed apart in the source
viral replication = conditions: cited from earlier work
SIGMAR1 = conditions: Extended Data Fig. 10b, cited from earlier work
SIGMAR2/TMEM97 = conditions: annotated activity, Extended Data Fig. 10b; cited from earlier work

Row | SMILES | antiviral activity / viral infectivity (in words) (SARS-CoV-2 [2]) | further results
1 | COc1cc2c(c(OC)n1)[C@]1(O)[C@H](O)[C@H](CN(C)C)[C@@H](c3ccccc3)[C@]1(c1ccc(C#N)cc1)O2 [zotatifin] | reduce viral infectivity in a concentration-dependent matter; also recorded: effectively reducing viral infectivity; also recorded: strong antiviral effect | detection of the viral NP protein (in words) (SARS-CoV-2 [1]): decreased the detection of the viral NP protein
2 | COc1ccc2c(c1)[C@]13CCCC[C@@H]1[C@H](C2)N(C)CC3 [dextromethorphan] | pro-viral activity | viral titers (TCID50), effect in words (SARS-CoV-2 [3]): increases viral titers
3 | CCCCc1oc2ccccc2c1C(=O)c1cc(I)c(OCCN(CC)CC)c(I)c1 [amiodarone] | – | activity in viral replication assays reported by others (in words) (viral replication): active in viral replication assays
4 | Fc1ccc(-n2cc(CCCCN3CCC4(CC3)OCc3ccccc34)c3ccccc32)cc1 [siramesine] | antiviral | –
5 | COc1ccc(CCN(C)CCCC(C#N)(c2ccc(OC)c(OC)c2)C(C)C)cc1OC (stereo not shown) [verapamil] | – | activity in viral replication assays reported by others (in words) (viral replication): active in viral replication assays
6 | O=C(CCCN1CCC(O)(c2ccc(Cl)cc2)CC1)c1ccc(F)cc1 [haloperidol, Haloperidol] | effectively reducing viral infectivity; also recorded: antiviral activity | –
7 | CCN(CCO)CCCC(C)Nc1ccnc2cc(Cl)ccc12 (stereo not shown) [hydroxychloroquine] | effectively reducing viral infectivity | detection of the viral NP protein (in words) (SARS-CoV-2 [1]): decreased the detection of the viral NP protein
8 | COc1ccc(CCN2CCC(Nc3nc4ccccc4n3Cc3ccc(F)cc3)CC2)cc1 [astemizole] | – | activity in viral replication assays reported by others (in words) (viral replication): active in viral replication assays
9 | Cc1cc2c(s1)Nc1ccccc1N=C2N1CCN(C)CC1 [olanzapine] | not antiviral | Sigma receptor activity (in words) (SIGMAR1): little Sigma receptor activity; activity at SIGMAR1, reported (SIGMAR1; annotated activity): greater than 5 μM
10 | Cc1cc(OCCN2CCOCC2)nn1-c1ccc2ccccc2c1 [E-52862] | – | binding at SIGMAR2/TMEM97, reported (SIGMAR2/TMEM97): greater than 1 μM
11 | COc1cccc2c1CCCC2CCCN1CCN(C2CCCCC2)CC1 (stereo not shown) [PB28] | effectively reducing viral infectivity | times more potent than hydroxychloroquine (SARS-CoV-2 [3]): ~ 20 times; detection of the viral NP protein (in words) (SARS-CoV-2 [1]): decreased the detection of the viral NP protein
12 | CCCN1CCC=C(c2cc(-c3ccc(C)cc3)no2)C1.O=C(O)C(=O)O [PD-144418] | effectively reducing viral infectivity | –
13 | CC(C)C[C@@H]1NC(=O)[C@H](Cc2cn(Cc3ccc(Br)cc3)c3ccccc23)N(C)C(=O)[C@H](CC(C)C)NC(=O)[C@H](CC(C)C)N(C)C(=O)[C@H](CC(C)C)NC(=O)[C@@H](CCC#N)OC(=O)[C@H](C)N(C)C1=O [PS3061] (cyclo(L[NMeA][Butanoyl(2R-oxy,4-CN)]L[NMeL]L[NMeTrp(1-(4-Br-benzyl))])) | effectively reducing viral infectivity; also recorded: blocked SARS-CoV-2 replication | –
14 | Clc1ccc(C(OCCN2CCCCC2)c2ccccc2)cc1 (stereo not shown) [cloperastine] | antiviral activity | –
15 | CC(=O)[C@H]1CC[C@H]2[C@@H]3CCC4=CC(=O)CC[C@]4(C)[C@H]3CC[C@]12C [progesterone] | antiviral | –
